Measured values as given in patent publication US20120003310A1 (priority 2009, published 2012).

Experiments:
[1] = citrate salt of the drug substance, per reference; cited from earlier work
[2] = Rasagiline citrate salt formation in solvents: extractable free rasagiline base (toluene extraction, TLC), pH, NMR equivalents; settings: for Extracted R-PAI (%) / Extracted R-PAI (amount): free rasagiline base extracted or filtered from the citrate salt solution, solvent and mole proportions per example; for pH (after extraction of R-PAI): value in parentheses
Description: (§1) The combined toluenic extract was evaporated to dryness.
as §1

[3] = per reference; cited from earlier work
[4] = Hygroscopicity: citrate salts exposed to atmospheric air in open dishes at ambient temperature; type: physicochemical; settings: for Changes on exposure to atmosphere (appearance): open dish, ambient temperature
Description: (§2) The changes were observed and recorded.

[5] = Appearance of citrate salts stored in closed sealed glass vials in refrigerator at 7±2° C.; type: physicochemical; settings: sealed glass vial, refrigerator 7±2° C.
Description: as §2

[6] = per reference; cited from earlier work; remark: listed apart in the source
[7] = Aqueous solubility of rasagiline base and rasagiline salts
[8] = such as hexane, toluene and ethylacetate
[9] = AZILECT Product Label, May 2006; cited from earlier work
[10] = time of exposure 1:50-2:00 hrs:min

For Cc1ccc(NC(=O)c2ccc(CN3CCN(C)CC3)cc2)cc1Nc1nccc(-c2cccnc2)n1, the Polynorpb [1] is given as “Crystalline”.
With C#CCN[C@@H]1CCc2ccccc21.O=C(O)CC(O)(CC(=O)O)C(=O)O [Example 19.13] the “Extracted R-PAI (%)” value [2] was “(48%)” and the “Extracted R-PAI (amount)” value [2] was 2.47 g.
For Phosphate, the Water solubility [3] is listed as “>=720 mg/ml”.
With C#CCN[C@@H]1CCc2ccccc21.O=C(O)CC(O)(CC(=O)O)C(=O)O [Example 19.4] the “Extracted R-PAI (%)” value [2] was “(22%)” and the “Extracted R-PAI (amount)” value [2] was 1.51 g.
In the case of C#CCN[C@@H]1CCc2ccccc21.C#CCN[C@@H]1CCc2ccccc21.C#CCN[C@@H]1CCc2ccccc21.O=C(O)CC(O)(CC(=O)O)C(=O)O [Example 4d], the “Changes on exposure to atmosphere (appearance)” value (shortened to “Changes on exposure”) ([4]; time of exposure 0:00 hrs:min) is reported as “Powder”, the “Changes on exposure” value ([4]; time of exposure 0:30 hrs:min) is reported as “Powder” and the “Changes on exposure” value ([4]; time of exposure 5:00 hrs:min) is reported as “Semi-solid”. The “Changes on exposure” value ([4]; time of exposure 6:00 hrs:min) was “Semi-solid”, the Appearance ([5]; storage 0 months) was “White powder” and the Appearance ([5]; storage 3 months) was “White powder”. The Appearance ([5]; storage 6 months) was “White powder”.
For Oxalate, the “Hygroscopicity by KF” value [6] is given as “Not hygroscopic”.
For C[C@@H]1CCN(C(=O)CC#N)C[C@@H]1N(C)c1ncnc2[nH]ccc12, the Polynorpb [1] is listed as “Crystalline”.
With C#CCN[C@@H]1CCc2ccccc21.C#CCN[C@@H]1CCc2ccccc21.O=C(O)CC(O)(CC(=O)O)C(=O)O [Example 4c] the “Changes on exposure” value ([4]; time of exposure 0:00 hrs:min) was “Powder”, the “Changes on exposure” value ([4]; time of exposure 0:50-1:00 hrs:min) was “Powder” and the “Changes on exposure” value ([4]; time of exposure 0:30 hrs:min) was “Powder”. For the same molecule, the “Changes on exposure” value [4, 10] was “Powder”, the “Changes on exposure” value ([4]; time of exposure 5:00 hrs:min) was “Lump powder” and the Appearance ([5]; storage 0 months) was “White powder”. The Appearance ([5]; storage 3 months) was “White powder” and the Appearance ([5]; storage 6 months) was “White powder”.
For CN1CCN(c2ccccc2C=C2SCCN(c3ccc(Cl)c(Cl)c3)C2=O)CC1, the Polynorpb [1] is given as “Crystalline”.
In the case of C#CCN[C@@H]1CCc2ccccc21.CCS(=O)(=O)O [Esylate], the Water solubility [3] is given as “>=300 mg/ml”.
With rasagiline citrate the “hygroscopicity compared to rasagiline base and other rasagiline salts” value ([4]; Tables 22b and 22c) was “highest hygroscopicity” and the “water solubility compared to rasagiline base and other rasagiline salts” value ([7]; Tables 22b and 22c) was “highest water solubility”.
For Cc1[nH]c(C=C2C(=O)Nc3ccc(F)cc32)c(C)c1C(=O)NCCN1CCCC1, the Polynorpb [1] is given as “Crystalline”.
In the case of C#CCN[C@@H]1CCc2ccccc21.O=C(O)CC(O)(CC(=O)O)C(=O)O [Example 19.1], the “Extracted R-PAI (%)” value [2] is reported as 1.75% and the “Extracted R-PAI (amount)” value [2] is reported as 0.06 g.
For C#CCN[C@@H]1CCc2ccccc21.O=C(O)CC(O)(CC(=O)O)C(=O)O [Example 19.17], the “pH (after extraction of R-PAI)” value [2] was “(3.41)”.
In the case of C#CCN[C@@H]1CCc2ccccc21 [Mesylate], the “Hygroscopicity by KF” value [6] is listed as “Not hygroscopic”.
For C#CCN[C@@H]1CCc2ccccc21.O=C(O)CC(O)(CC(=O)O)C(=O)O [Example 19.14], the “pH (after extraction of R-PAI)” value [2] was 3.49 and the pH ([2]; value outside parentheses, before extraction of R-PAI) was 3.53.
For O=C(O)CC(O)(CC(=O)O)C(=O)O [citric acid], the “Hygroscopicity by KF” value [6] is given as “low”.
In the case of Cl [Chloride], the “Hygroscopicity by KF” value [6] is given as “Not hygroscopic”.
In the case of N#Cc1ccc2[nH]c(O)c(-c3ccc(CN4CCOCC4)cn3)c2c1, the Polynorpb [1] is listed as “Crystalline”.
In the case of C#CCN[C@@H]1CCc2ccccc21 [Solid R-PAI (Free Base)], the “Hygroscopicity by KF” value [6] is given as “Not hygroscopic” and the Water solubility [3] is given as “low”.
For C[C@@H]1CCCN1CCc1ccc2cc(-n3ncccc3=O)ccc2c1, the Polynorpb [1] is listed as “Crystalline”.
In the case of C#CCN[C@@H]1CCc2ccccc21.C#CCN[C@@H]1CCc2ccccc21.O=S(=O)(O)CCS(=O)(=O)O [Edisilate], the “Hygroscopicity by KF” value [6] is given as “Not hygroscopic”.
For C#CCN[C@@H]1CCc2ccccc21.O=C(O)CC(O)(CC(=O)O)C(=O)O, the “free rasagiline that may be extracted from the aqueous solution of the salt” value [2] was “A few percent” and the “stability of the salt in solvents” value ([2]; aqueous and other solutions (alcohol, MEK, acetone)) was “stable in most solvents”.
In the case of C#CCN[C@@H]1CCc2ccccc21 [rasagiline, R(+)-N-propargyl-1-aminoindan], the “solubility in non-polar organic solvents” value [8] is given as “very soluble”, the absolute bioavailability [9] is given as “about 36%” and the “amount dissolving in aqueous reaction solution of citric acid” value [7] is given as “more than 10 wt %”.
For C#CCN[C@@H]1CCc2ccccc21.O=C(O)CC(O)(CC(=O)O)C(=O)O [Example 19.6], the “Extracted R-PAI (%)” value [2] was “(43.3%)” and the “Extracted R-PAI (amount)” value [2] was 4.44 g.
With C#CCN[C@@H]1CCc2ccccc21.O=C(O)CC(O)(CC(=O)O)C(=O)O [Example 4b] the “Changes on exposure” value ([4]; time of exposure 0:00 hrs:min) was “Powder”, the “Changes on exposure” value [4, 10] was “Semi-solid” and the “Changes on exposure” value ([4]; time of exposure 6:00 hrs:min) was “Syrup”. The “Changes on exposure” value ([4]; time of exposure 7:00 hrs:min) was “Syrup”, the Appearance ([5]; storage 0 months) was “White powder” and the Appearance ([5]; storage 3 months) was “White powder”. The Appearance ([5]; storage 6 months) was “White powder”.
For Tosylate, the Water solubility [3] is listed as 60 to 70 mg/mL.
For O=C(O)CC(O)(CC(=O)O)C(=O)O.c1cnc2cc3c(cc2n1)C1CNCC3C1, the Polynorpb [1] is listed as “Crystalline”.
With C#CCN[C@@H]1CCc2ccccc21.O=C(O)CC(O)(CC(=O)O)C(=O)O [Example 19.7] the “Extracted R-PAI (%)” value [2] was “(38.2%)” and the “Extracted R-PAI (amount)” value [2] was 3.92 g.
